{"source": "paper PMC8201735", "about": "(BMC Pharmacology & Toxicology, 2021)", "tested_on": "subjects with T2DM", "assay": "Surveillance for lactic acidosis: fasting plasma lactic acid concentration", "assay_type": "in vivo, human", "description": "The samples for acidosis analysis were collected at screening (following an overnight fast and prior to morning dose), once during the run-in phase, at baseline (Day- 1), mornings (prior to first dose and breakfast) of Days 1, 2, 3, and 4 (inpatient) and Days 6, 8, and 10 (outpatient) and Days 13 and 14 (inpatient). Subjects were not allowed to do rigorous exercise or physical labor during the treatment phase of the study and instructed to limit exercise 12 h before sampling.\nDescriptive statistics were used to summarize baseline demographics, safety data, and pharmacokinetic parameters. Geometric mean and % CVb (between-subject coefficient of variation) were calculated for all pharmacokinetic parameters except tmax. Comparisons of placebo with each active dose of RE were assessed in terms of change from baseline in fasting plasma lactate acid using repeated measures analysis of covariance model. The model included terms for baseline measurement, visit, treatment and visit-by-treatment interaction. The same model was applied to change from baseline in weighted means of day-time, night-time and 0–24 h of blood pressures. Within group treatment comparison was performed using mixed model on log transformed Cmax and AUC (0-last).", "key": {"[1]": {"conditions": "Study Day 2, RE 750 mg BID + metformin"}, "[2]": {"conditions": "Study Day 6, RE 750 mg BID + metformin"}}}
{"smiles": "CCOC(=O)OC[C@H]1O[C@@H](Oc2nn(C(C)C)c(C)c2Cc2ccc(OC(C)C)cc2)[C@H](O)[C@@H](O)[C@@H]1O", "note": "[RE, remogliflozin etabonate]", "values": [{"measurement": "Fasting plasma lactic acid, maximum on-therapy absolute values, Mean (SD)", "setting": "RE 500 mg BID + metformin", "result": "1.220 (0.2684) mmol/L"}, {"measurement": "Fasting plasma lactic acid, maximum on-therapy change from baseline, Mean (SD)", "setting": "RE 500 mg BID + metformin", "result": "0.234 (0.3717) mmol/L"}, {"measurement": "Fasting plasma lactic acid, maximum on-therapy absolute values, Mean (SD)", "setting": "RE 750 mg BID + metformin", "result": "1.508 (0.4389) mmol/L"}, {"measurement": "Fasting plasma lactic acid, maximum on-therapy change from baseline, Mean (SD)", "setting": "RE 750 mg BID + metformin", "result": "0.249 (0.5934) mmol/L"}, {"measurement": "Fasting plasma lactic acid change from baseline, Mean (SD)", "setting": "Study Day 2, RE 500 mg BID + metformin", "result": "−0.07 (0.248) mmol/L"}, {"measurement": "Fasting plasma lactic acid change from baseline, Difference vs. placebo (95% CI), ANCOVA", "setting": "[1]", "result": "−0.246(− 0.445, − 0.047) mmol/L"}, {"measurement": "Fasting plasma lactic acid change from baseline, Mean (SD)", "setting": "[1]", "result": "−0.17 (0.419) mmol/L"}, {"measurement": "Fasting plasma lactic acid change from baseline, Difference vs. placebo (95% CI), ANCOVA", "setting": "Study Day 6, RE 500 mg BID + metformin", "result": "−0.380 (− 0.603, − 0.157) mmol/L"}, {"measurement": "Fasting plasma lactic acid change from baseline, Mean (SD)", "setting": "Study Day 6, RE 500 mg BID + metformin, n = 15", "result": "−0.26 (0.310) mmol/L"}, {"measurement": "Fasting plasma lactic acid change from baseline, Difference vs. placebo (95% CI), ANCOVA", "setting": "[2]", "result": "−0.254(− 0.472, − 0.036) mmol/L"}, {"measurement": "Fasting plasma lactic acid change from baseline, Mean (SD)", "setting": "[2]", "result": "−0.26 (0.538) mmol/L"}, {"measurement": "Fasting plasma lactic acid change from baseline, Difference vs. placebo (95% CI), ANCOVA", "setting": "Study Day 13, RE 500 mg BID + metformin", "result": "−0.191 (− 0.414, 0.031) mmol/L"}, {"measurement": "Fasting plasma lactic acid change from baseline, Mean (SD)", "setting": "Study Day 13, RE 500 mg BID + metformin, n = 15", "result": "−0.15 (0.485) mmol/L"}, {"measurement": "Fasting plasma lactic acid change from baseline, Difference vs. placebo (95% CI), ANCOVA", "setting": "Study Day 13, RE 750 mg BID + metformin", "result": "−0.255 (− 0.475, − 0.034) mmol/L"}, {"measurement": "Fasting plasma lactic acid change from baseline, Mean (SD)", "setting": "Study Day 13, RE 750 mg BID + metformin, n = 16", "result": "−0.33 (0.398) mmol/L"}, {"measurement": "Subjects with lactic acid greater than the upper limits of normal (ULN) at any time", "setting": "receiving RE, not sustained, minimally above ULN", "result": "one"}]}
